The subject of this assay is vascular permeability. The experiment in a line: Suppression of increased vascular permeability (λ-carrageenin, dye leakage) in guinea pigs. It is filed as in vivo, Hartley strain albino guinea pigs. Particulars: oral, 2.0 mg/kg; for Suppression rate: *p < 0.05. The protocol: The hair on the back of Hartley strain albino guinea pigs (male; weighing 235 to 270 g; in groups of 7 animals) was removed with an electric hair clipper and an electric razor, circles, 2.5 cm in diameter (4.91 cm^2 in area), were drawn symmetrically on both sides of the medium line, and 50 mg of each test external preparation was applied to the area of each circle. Three hours after application, 0.1 ml of 0.1% λ-carrageeninsolution was injected intradermally into the center of each circle, followed by injection of 0.5 ml/100 g of body weight of 0.5% Pontamine sky blue solution into the vein of the penis. Three hours after injection, each animal was sacrificed by decapitation, exsanguinated and flayed, and the area of dye leakage (major axis x minor axis) on the inner side of the skin was measured with slide calipers.
The external preparations used were preparations (A), (D), (E) and (H) containing of 0.1%, 0.25%, 0.5% and 1% of clidanac, respectively, and preparations (f), (g), (h) and (i) containing 0.1%, 0.25%, 0.5% and 1% of indomethacin, respectively. In the control group, any preparation was not administered but massage alone was performed.
For further comparison, oral preparations respectively containing clidanac and indomethacin were prepared by the procedure of Reference Example 4 and orally administered in a clidanac dose of 2 mg/kg and in an indomethacin dose of 2 mg/kg, respectively, and the animals were treated in the same manner as mentioned above.
The rate of suppression was calculated using the follwoing formula: [formula] where C is the area of dye leakage for the control group and T is the area of dye leakage for the drug-treated group.

`O=C(O)C1CCc2cc(C3CCCCC3)c(Cl)cc21` (stereo not shown) [Clidanac, 6-chloro-5-cyclohexylindane-1-carboxylic acid]: the “Area of dye leakage” value was determined as 193.8 ± 12.1 mm^2 and the Suppression rate is given as 17.4%.

Consider `COc1ccc2c(c1)c(CC(=O)O)c(C)n2C(=O)c1ccc(Cl)cc1` [Indomethacin], for which the “Area of dye leakage” value is reported as 195.7 ± 13.6 mm^2 and the Suppression rate was found to be 16.6%.

Values taken from US4500511A, “Antiinflammatory and analgesic gel” (Grelan Pharmaceutical Co., Ltd., priority 1982, dated 1985).
